Laboratory results taken from paper PMC4589873, “A pain-inducing centipede toxin targets the heat activation machinery of nociceptor TRPV1” (Nature Communications, 2015).
“Also recorded” adds a separate entry of the source. Where a SMILES comes first, the peptide text is derived from it. Bridges are numbered along the chain shown (N, C = ends).

Key:
WT mice = assay: Colonic temperature after intraperitoneal injection; assay type: in vivo, mouse; settings: WT mice n=6, intraperitoneal, 10 μmol kg^−1
Experimental: (§1) In vivo effects of RhTx on WT mice or Trpv1^−/− mice were examined according to protocols described previously. For the paw-licking assay, pain was induced in mice by intraplantar injection of 0.1% formalin, capsaicin (1 μmol per paw) or RhTx (1 μmol per paw). Each of the testing materials was dissolved in 100 μl saline. Control mice received the same volume of saline. Injected mice were placed individually into open polyvinyl cages (20 × 40 × 15 cm). Time spent licking the injected paw was recorded by a digital video camera during the following 40 min. For recording colonic temperature from WT or Trpv1^−/− mice, mice equipped with a copper-constantan thermocouple were individually placed in open polyvinyl cages. A data logger was connected to the thermocouple. Mice were injected intraperitoneally with 100 μl saline containing capsaicin or RhTx. The dose of capsaicin or RhTx was 10 μmol kg^−1 for these experiments. Mice in the control group received the same volume of saline.

[1] = system: mTRPV1 point mutants at D602, Y632, T634 and L461; assay: Whole-cell current of mTRPV1 point mutants; assay type: cell-based, mouse; settings: glycine or alanine mutation, both at 10 μM, +80 mV
Description: (§2) TRPV1 and TRPV3 chimeras used in this study were generated by the overlapping extension method[54] and confirmed by DNA sequencing, as described previously. Briefly, to generate V1/3S, the primer pairs (5′-[…]-3′and 5′-[…]-3′) were used. To generate other TRPV1/TRPV3 chimeras, the enzyme cutting sites by MluI were made by the primer pair (5′-[…]-3′ and 5′-[…]-3′) for TRPV1 and the primer pair (5′-[…]-3′ and 5′-[…]-3′) for TRPV3. The enzyme cutting sites by PvuI were made by the primer pair (5′-[…]-3′ and 5′-[…]-3′) for TRPV1 and the primer pair (5′-[…]-3′ and 5′-[…]-3′) for TRPV3. The enzyme cutting sites by BsiWI were made by the primer pair (5′-[…]-3′ and 5′-[…]-3′) for TRPV1 and the primer pair (5′-[…]-3′ and 5′-[…]-3′) for TRPV3. V1/3M were generated by enzyme cut and paste between MluI and PvuI sites, while V1/3L were generated by enzyme cut and paste between MluI and BsiWI sites. V1_S1S2_1, V1_S1S2_3 and V1_S1S2_3 were generated as previously reported. […]
As described in details in a previous report, macroscopic currents (in whole-cell, inside-out or outside-out configuration) as well as single-channel currents were recorded using a HEKA EPC10 amplifier with the PatchMaster software (HEKA). […] Statistical difference was determined using the Student’s t-test, and indicated by ** when reaching the significance level P<0.001.

[2] = system: voltage-gated Ca channels; assay: Selectivity recording on voltage-gated Ca channels; assay type: cell-based; settings: 10 μM RhTx compared to toxin-free treatment
Experimental: (§3) Supplementary Figure 3. […]
(§4) mTRPV2 (c), mTRPV3 (d) and mTRPV4 (e). (f) Treatment with 10 μM RhTx (red traces)

[3] = system: voltage-gated Na channels; assay: Selectivity recording on voltage-gated Na channels; assay type: cell-based; settings: 10 μM RhTx compared to toxin-free treatment
Experimental: as §3, §4

voltage-gated K channels = assay: Selectivity recording on voltage-gated K channels; assay type: cell-based; settings: 10 μM RhTx compared to toxin-free treatment
Experimental: as §3, §4

[4] = system: mTRPV1 point mutants at D602, Y632, T634 and L461; assay: Calcium imaging of mTRPV1 point mutants; assay type: cell-based, mouse; settings: glycine or alanine mutation; 10 μM RhTx, 10 μM capsaicin
Description: as §2, with “TRPV3.” for “TRPV3. V1/3M were generated by enzyme cut and paste between MluI and PvuI sites, while V1/3L were generated by enzyme cut and paste between MluI and BsiWI sites. V1_S1S2_1, V1_S1S2_3 and V1_S1S2_3 were generated as previously reported.”
Mouse DRG neurons were acutely dissociated and maintained in a short-term primary culture according to procedures as previous descripted. […] Fluorescence images of DRG neurons and HEK-293T cells were acquired with an Olympus IX81 microscope with Hamamatsu C4742 charge-coupled device camera controlled by the MetaFluor Software (Molecular Devices). Fluo-4 was excited by a mercury vapour light source with a 500/20-nm excitation filter, while fluorescence emission was detected with a 535/30-nm emission filter. Fluorescence images were required with automated routines written in MetaMorph software (Molecular Devices) and analysed with Igor Pro (Wavemetrics).

Trpv1−/− knockout mice = assay: Paw-licking assay in TRPV1 knockout mice; assay type: in vivo, mouse; settings: intraplantar, 1 μmol per paw
Experimental: as §1

mTRPV1 = target: T1, mTRPV1 (Mus musculus, UniProt Q704Y3); assay: Whole-cell patch-clamp of mTRPV1 expressed in HEK293 cells; assay type: cell-based
T1 construct: expressed in transfected cells; host or cells: HEK-293T
Description: TRPV1 and TRPV3 chimeras used in this study were generated by the overlapping extension method[54] and confirmed by DNA sequencing, as described previously. Briefly, to generate V1/3S, the primer pairs (5′-[…]-3′and 5′-[…]-3′) were used. To generate other TRPV1/TRPV3 chimeras, the enzyme cutting sites by MluI were made by the primer pair (5′-[…]-3′ and 5′-[…]-3′) for TRPV1 and the primer pair (5′-[…]-3′ and 5′-[…]-3′) for TRPV3. The enzyme cutting sites by PvuI were made by the primer pair (5′-[…]-3′ and 5′-[…]-3′) for TRPV1 and the primer pair (5′-[…]-3′ and 5′-[…]-3′) for TRPV3. The enzyme cutting sites by BsiWI were made by the primer pair (5′-[…]-3′ and 5′-[…]-3′) for TRPV1 and the primer pair (5′-[…]-3′ and 5′-[…]-3′) for TRPV3. V1/3M were generated by enzyme cut and paste between MluI and PvuI sites, while V1/3L were generated by enzyme cut and paste between MluI and BsiWI sites. V1_S1S2_1, V1_S1S2_3 and V1_S1S2_3 were generated as previously reported. All mTRPV1 point mutations were constructed using the QuickChange II XL site-directed mutagenesis kit following the manufacturer’s instruction. These point mutations were sequenced to confirm that appropriate constructs were made. HEK-293T cells were cultured and transiently transfected using Lipofectamine 2,000 (Invitrogen) as previously described.
(§5) As described in details in a previous report, macroscopic currents (in whole-cell, inside-out or outside-out configuration) as well as single-channel currents were recorded using a HEKA EPC10 amplifier with the PatchMaster software (HEKA). Both pipette solution and bath solution contained 130 mM NaCl, 3 mM HEPES and 0.2 mM EDTA (pH 7.2). All recordings were performed at room temperature unless otherwise stated. A holding potential of 0 mV was used from which a testing pulse to +80 mV was applied. Statistical difference was determined using the Student’s t-test, and indicated by ** when reaching the significance level P<0.001.

mTRPV4 = assay: Selectivity recording on mTRPV4; assay type: cell-based, mouse; settings: RhTx at 10 μM
Experimental: as §5, §3, §4

[5] = system: dorsal root ganglion (DRG) neurons; assay: Calcium imaging of DRG neurons (Fluo-4); assay type: cell-based, mouse; settings: RhTx 10 μM, capsaicin 10 μM
Experimental: Mouse DRG neurons were acutely dissociated and maintained in a short-term primary culture according to procedures as previous descripted. DRG neurons or HEK-293T cells were loaded with Fluo-4 AM in 2 mM Ca^2+ Ringer’s solution (140 mM NaCl, 5 mM KCl, 2 mM MgCl2, 10 mM glucose, 2 mM CaCl2 and 10 mM HEPES, pH 7.4). Fluorescence images of DRG neurons and HEK-293T cells were acquired with an Olympus IX81 microscope with Hamamatsu C4742 charge-coupled device camera controlled by the MetaFluor Software (Molecular Devices). Fluo-4 was excited by a mercury vapour light source with a 500/20-nm excitation filter, while fluorescence emission was detected with a 535/30-nm emission filter. Fluorescence images were required with automated routines written in MetaMorph software (Molecular Devices) and analysed with Igor Pro (Wavemetrics).

TRPV1 = assay: Infrared laser-induced heat activation, inside-out patch; assay type: cell-based
Experimental: The experimental set-up for rapidly heating cell membrane containing expressed TRPV1 channels was described in a previous report. Electrophysiological recordings were done in the inside-out mode. Toxin was added in the pipette solution. Laser light of 1,443 nm was generated by a laser diode (Fitel) driven by a controller (Thorlabs). The maximal optic output power of the laser was 250 mW. The laser light was transmitted to the voltage-clamped cell membrane through a single-mode optical fibre (125 μm outer diameter, 10 μm light-conducting core diameter), with the patch pipette tip placed in front of the centre of the optical fibre. Light energy was absorbed by water and converted to heat to drive channel activation. To calibrate the laser heating system, the relationship between laser driving power and temperature was tabulated as previously described. Briefly, a glass pipette was filled with a solution distinct from the bath solution and was centred at the end of the optical fibre. The laser driving power was adjusted to produce junction potential values matching those measured in the same solutions at different temperatures.

T1 sequence (Q704Y3 whole entry): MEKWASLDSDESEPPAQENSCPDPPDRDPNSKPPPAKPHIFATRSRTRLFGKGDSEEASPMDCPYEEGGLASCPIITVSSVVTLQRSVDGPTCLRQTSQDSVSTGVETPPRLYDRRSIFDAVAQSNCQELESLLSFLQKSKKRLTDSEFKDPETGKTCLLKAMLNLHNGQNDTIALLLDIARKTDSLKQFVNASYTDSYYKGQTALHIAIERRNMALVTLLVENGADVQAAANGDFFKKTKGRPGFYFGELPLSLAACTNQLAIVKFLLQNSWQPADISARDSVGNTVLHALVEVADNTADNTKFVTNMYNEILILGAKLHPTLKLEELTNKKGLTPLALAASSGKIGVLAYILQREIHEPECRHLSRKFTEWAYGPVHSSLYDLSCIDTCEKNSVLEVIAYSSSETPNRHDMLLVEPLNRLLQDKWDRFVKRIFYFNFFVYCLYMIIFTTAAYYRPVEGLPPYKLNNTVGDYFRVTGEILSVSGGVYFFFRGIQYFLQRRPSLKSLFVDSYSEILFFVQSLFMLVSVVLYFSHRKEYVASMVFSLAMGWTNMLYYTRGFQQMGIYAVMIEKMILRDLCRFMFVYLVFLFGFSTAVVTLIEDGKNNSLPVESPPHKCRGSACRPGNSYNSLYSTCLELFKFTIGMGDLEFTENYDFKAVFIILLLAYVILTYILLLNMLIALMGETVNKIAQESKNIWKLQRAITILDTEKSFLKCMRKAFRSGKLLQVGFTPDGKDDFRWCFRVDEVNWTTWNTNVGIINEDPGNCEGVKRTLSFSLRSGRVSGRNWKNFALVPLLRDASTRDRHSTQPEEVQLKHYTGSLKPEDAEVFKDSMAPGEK

CC[C@H](C)[C@H](NC(=O)[C@@H]1CSSC[C@@H]2NC(=O)[C@H]([C@@H](C)O)NC(=O)[C@H](C(C)C)NC(=O)CNC(=O)[C@H](CC(N)=O)NC(=O)[C@@H](NC(=O)[C@@H]3CCCN3C(=O)[C@H](CC(N)=O)NC(=O)[C@H](CC(N)=O)NC(=O)[C@@H](N)CC(C)C)CSSC[C@H](NC(=O)[C@H](CCCNC(=N)N)NC(=O)[C@H](Cc3ccc(O)cc3)NC(=O)CNC(=O)[C@H](CO)NC(=O)[C@@H]3CCCN3C2=O)C(=O)N[C@@H](CO)C(=O)N[C@@H]([C@@H](C)CC)C(=O)N[C@@H](C(C)C)C(=O)N[C@@H](CC(=O)O)C(=O)N[C@@H](CCCCN)C(=O)N[C@@H](CCC(N)=O)C(=O)N1)C(=O)N[C@@H](CCCCN)C(=O)N[C@@H](CCCCN)C(=O)N[C@@H](CCC(=O)O)C(=O)O [RhTx] (H-LNNPCNGVTCPSGYRCSIVDKQCIKKE-OH; disulfide 5-16, 10-23; N-terminus and C-terminus assumed)
core (colonic) temperature (WT mice): rapid drop in core temperature | agonist-induced current in point mutants versus WT channel [1]: markedly reduced | effect on voltage-gated Ca channels [2]: no detectable effect; also recorded: no discernable response | effect on voltage-gated Na channels [3]: no detectable effect; also recorded: no discernable response | effect on voltage-gated K channels (voltage-gated K channels): no detectable effect; also recorded: no discernable response | agonist-induced intracellular calcium increase in point mutants versus WT channel [4]: markedly reduced | pain behaviour (paw licking) in knockout mice (Trpv1−/− knockout mice): ineffective | activation of mouse TRPV1 (mTRPV1): strongly activated | EC50 (mTRPV1; SEM): 522 ± 162 nM | Hill slope (mTRPV1; whole-cell mTRPV1 currents, Hill fit, average±s.e.m., n=10, SEM): 1.17±0.37 | response of TRPV4 (mTRPV4): no detectable effect; also recorded: no discernable response | intracellular calcium increase in capsaicin-responsive DRG neurons [5]: nearly as strong as capsaicin | effect on infrared laser-induced heat activation, 50 nM (TRPV1; RhTx at 50 nM in pipette, inside-out patch, +80 mV): substantially potentiated | lowering of the activation threshold temperature (TRPV1; RhTx at 100 nM): 6 °C
